Values quoted from earlier work as cited in patent US20140256822A1, “TRANSMUCOSAL DRUG DELIVERY SYSTEM” (priority 2013, published 2014).

Details: at a pH of 6.8

CN1CCCC1c1cccnc1 (stereo not shown) [nicotine]
nicotine in the free base form: about 10%
